These results are taken from US10894797B2, “Fused tricyclic ring derivatives as SRC homology-2 phosphatase inhibitors” (Nikang Therapuetics, Inc., priority 2018, dated 2021).

Chain of SHP2 (Q06124 whole entry, the tested form may be a part): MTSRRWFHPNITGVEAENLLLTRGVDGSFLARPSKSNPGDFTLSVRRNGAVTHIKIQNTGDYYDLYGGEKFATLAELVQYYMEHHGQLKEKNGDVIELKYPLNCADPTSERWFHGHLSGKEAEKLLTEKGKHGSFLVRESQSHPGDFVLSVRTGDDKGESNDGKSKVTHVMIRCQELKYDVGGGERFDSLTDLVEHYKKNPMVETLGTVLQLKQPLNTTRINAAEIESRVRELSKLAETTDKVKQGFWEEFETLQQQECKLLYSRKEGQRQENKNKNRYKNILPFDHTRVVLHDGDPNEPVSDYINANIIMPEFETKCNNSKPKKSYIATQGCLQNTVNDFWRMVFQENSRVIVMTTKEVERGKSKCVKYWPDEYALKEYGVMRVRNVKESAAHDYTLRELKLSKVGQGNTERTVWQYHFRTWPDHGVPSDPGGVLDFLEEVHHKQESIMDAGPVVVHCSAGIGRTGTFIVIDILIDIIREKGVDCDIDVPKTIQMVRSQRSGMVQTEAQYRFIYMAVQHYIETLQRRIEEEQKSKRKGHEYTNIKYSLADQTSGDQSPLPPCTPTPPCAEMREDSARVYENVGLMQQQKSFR

In this experiment the target is SHP2 (Homo sapiens (Human), UniProt Q06124). The experiment can be described thus: SHP2 allosteric inhibition assay (DiFMUP substrate, bisphos-IRS1 peptide activation). The format is biochemical. As to conditions: 0.33 nM SHP2, 0.5 μM bisphos-IRS1 peptide, 100 uM DiFMUP, room temperature. As to the method:
At the basal state, SHP2 is auto-inhibited and access of substrates to the catalytic site is blocked by the […] interactions between the SH2 domains and the PTP domain. When bis-tyrosyl-phosphorylated peptides bind to SH2 domain of SHP2, the PTP domain becomes available for substrate recognition and reaction catalysis and SHP2 is allosterically activated. SHP2 catalytic activity can be measured using a fluorogenic artificial substrate DiFMUP.
The phosphatase reactions were carried out at room temperature in 384-well black polystyrene plates (Greiner Bio-One, Cat #784076) using assay buffers containing 60 mM HEPES, pH 7.2, 75 mM NaCl, 75 mM KCl, 1 mM EDTA, 0.05% P-20, and 5 mM DTT.
0.33 nM of SHP2 was co-incubated with of 0.5 μM of bisphos-IRS 1 peptide (sequence: H2N-LN(pY)IDLDLV(dPEG8)LST(pY)ASINFQK-amide) and various concentrations of compounds for 30-60 min at room temperature. Then the reaction was initiated by addition of the surrogate substrate DiFMUP (Invitrogen, Cat #D6567, 100 uM final).
The real-time conversion of DiFMUP to DiFMU (6,8-difluoro-7-hydroxyl-4-methyl-coumarin) was measured every 5 min for 30 min using a microplate reader (CLARIOstar, BMG Labtech) with excitation and emission wavelengths of 340 nm and 450 nm, respectively. Initial reaction rates were determined by linear fitting of the data and the inhibitor dose response curves were analyzed using normalized IC50 regression curve fitting with control-based normalization.
One may read the IC50 as the concentration that gives 50% inhibition. The low end stands for greater potency in that assay, the high end for weaker potency in that assay. `C[C@@H]1OCC2(CCN(c3ncc(Sc4ccnc5c4OC[C@@H]4C[C@@H](F)CN54)nc3CO)CC2)[C@@H]1N` [Compound 4, (3-((3S,4S)-4-amino-3-methyl-2-oxa-8-azaspiro[4.5]decan-8-yl)-6-(((6aS,8R)-8-fluoro-6a,7,8,9-tetrahydro-6H-pyrido[3,2-b]pyrrolo[1,2-d][1,4]oxazin-4-yl)thio)pyrazin-2-yl)methanol] registered an IC50 of 5 nM.
As for `COCCO[C@H]1C[C@H]2COc3c(Sc4cnc(N5CCC6(CC5)CO[C@@H](C)[C@H]6N)c(CO)n4)ccnc3N2C1` [Compound 15, (3-((3S,4S)-4-amino-3-methyl-2-oxa-8-azaspiro[4.5]decan-8-yl)-6-(((6aS,8S)-8-(2-methoxyethoxy)-6a,7,8,9-tetrahydro-6H-pyrido[3,2-b]pyrrolo[1,2-d][1,4]oxazin-4-yl)thio)pyrazin-2-yl)methanol], the figure is 10 nM; as for `COCOC[C@H]1C[C@H]2COc3c(Sc4ncc(N5CCC6(CC5)CO[C@@H](C)[C@H]6N)nc4N)ccnc3N2C1` [Compound 44, (3S,4S)-8-(6-amino-5-(((6aS,8S)-8-((methoxymethoxy)methyl)-6a,7,8,9-tetrahydro-6H-pyrido[3,2-b]pyrrolo[1,2-d][1,4]oxazin-4-yl)thio)pyrazin-2-yl)-3-methyl-2-oxa-8-azaspiro[4.5]decan-4-amine], 5.9 nM.
In the case of `CO[C@H]1C[C@H]2COc3c(Sc4cnc(N5CCC6(CC5)CO[C@@H](C)[C@H]6N)c(CO)n4)ccnc3N2C1` [Compound 5, (3-((3S,4S)-4-amino-3-methyl-2-oxa-8-azaspiro[4.5]decan-8-yl)-6-(((6aS,8S)-8-methoxy-6a,7,8,9-tetrahydro-6H-pyrido[3,2-b]pyrrolo[1,2-d][1,4]oxazin-4-yl)thio)pyrazin-2-yl)methanol], the IC50 stood at 8 nM.
In turn, `COCOC[C@H]1C[C@H]2COc3c(Sc4nc(CO)c(N5CCC6(CC5)CO[C@@H](C)[C@H]6N)nc4C)ccnc3N2C1` [Compound 49, (3-((3S,4S)-4-amino-3-methyl-2-oxa-8-azaspiro[4.5]decan-8-yl)-6-(((6aS,8S)-8-((methoxymethoxy)methyl)-6a,7,8,9-tetrahydro-6H-pyrido[3,2-b]pyrrolo[1,2-d][1,4]oxazin-4-yl)thio)-5-methylpyrazin-2-yl)methanol] displayed an IC50 of 12 nM.
In turn, `CO[C@H]1C[C@@H]2COc3c(Sc4cnc(N5CCC6(CC5)CO[C@@H](C)[C@H]6N)c(CO)n4)ccnc3N2C1` [Compound 10, (3-((3S,4S)-4-amino-3-methyl-2-oxa-8-azaspiro[4.5]decan-8-yl)-6-(((6aR,8S)-8-methoxy-6a,7,8,9-tetrahydro-6H-pyrido[3,2-b]pyrrolo[1,2-d][1,4]oxazin-4-yl)thio)pyrazin-2-yl)methanol] returned an IC50 of 10 nM.
On to `COC[C@@H]1C[C@H]2COc3c(Sc4cnc(N5CCC6(CC5)CO[C@@H](C)[C@H]6N)c(CO)n4)ccnc3N2C1` [Compound 30, (3-((3S,4S)-4-amino-3-methyl-2-oxa-8-azaspiro[4.5]decan-8-yl)-6-(((6aS,8R)-8-(methoxymethyl)-6a,7,8,9-tetrahydro-6H-pyrido[3,2-b]pyrrolo[1,2-d][1,4]oxazin-4-yl)thio)pyrazin-2-yl)methanol], for which half-maximal inhibition (IC50) required 3.8 nM.
`C[C@@H]1OCC2(CCN(c3ncc(Sc4ccnc5c4OC[C@@H]4C[C@H](S(C)(=O)=O)CN54)nc3CO)CC2)[C@@H]1N` [Compound 21, (3-((3S,4S)-4-amino-3-methyl-2-oxa-8-azaspiro[4.5]decan-8-yl)-6-(((6aS,8S)-8-(methylsulfonyl)-6a,7,8,9-tetrahydro-6H-pyrido[3,2-b]pyrrolo[1,2-d][1,4]oxazin-4-yl)thio)pyrazin-2-yl)methanol] registered an IC50 of 13 nM.
In turn, `COCOC[C@@H]1C[C@H]2COc3c(Sc4cnc(N5CCC6(CC5)CO[C@@H](C)[C@H]6N)c(CO)n4)ccnc3N2C1` [Compound 50, (3-((3S,4S)-4-amino-3-methyl-2-oxa-8-azaspiro[4.5]decan-8-yl)-6-(((6aS,8R)-8-((methoxymethoxy)methyl)-6a,7,8,9-tetrahydro-6H-pyrido[3,2-b]pyrrolo[1,2-d][1,4]oxazin-4-yl)thio)pyrazin-2-yl)methanol] returned an IC50 of 3.5 nM.
Turning to `C[C@@H]1OCC2(CCN(c3ncc(Sc4ccnc5c4OC[C@@H]4C[C@H](OC6COC6)CN54)nc3CO)CC2)[C@@H]1N` [Compound 13, (3-((3S,4S)-4-amino-3-methyl-2-oxa-8-azaspiro[4.5]decan-8-yl)-6-(((6aS,8S)-8-(oxetan-3-yloxy)-6a,7,8,9-tetrahydro-6H-pyrido[3,2-b]pyrrolo[1,2-d][1,4]oxazin-4-yl)thio)pyrazin-2-yl)methanol], the midpoint of inhibition, the IC50, lay at 8 nM.
Regarding `COCOC[C@H]1C[C@H]2COc3c(Sc4cnc(N5CCC6(CC5)Cc5ncccc5[C@H]6N)c(CO)n4)ccnc3N2C1` [Compound 48, (3-((S)-5-amino-5,7-dihydrospiro[cyclopenta[b]pyridine-6,4′-piperidin]-1′-yl)-6-(((6aS,8S)-8-((methoxymethoxy)methyl)-6a,7,8,9-tetrahydro-6H-pyrido[3,2-b]pyrrolo-[1,2-d][1,4]oxazin-4-yl)thio)pyrazin-2-yl)methanol], the IC50 came to 3.3 nM.
Take `COC[C@H]1C[C@H]2COc3c(Sc4cnc(N5CCC6(CC5)COC5(CCC5)[C@H]6N)c(CO)n4)ccnc3N2C1` [Compound 38, (3-((S)-5-amino-13-oxa-9-azadispiro[3.1.5^6.2^4]tridecan-9-yl)-6-(((6aS,8S)-8-(methoxymethyl)-6a,7,8,9-tetrahydro-6H-pyrido[3,2-b]pyrrolo[1,2-d][1,4]oxazin-4-yl)thio)pyrazin-2-yl)methanol]: the IC50 came to 5.7 nM.
